Reference: BindingDB's records for patent US12441689 (Epivario, 2025)

Target: Acetyl-coenzyme A synthetase, cytoplasmic (Homo sapiens, UniProt Q9NR19)
Assay: ACSS2 Cell-Free Activity Assay
Experimental: At the end of the reaction, Biomol Green was added for 30 minutes at RT and the activity was measured by reading the absorbance at 620 nm.

Chain of Acetyl-coenzyme A synthetase, cytoplasmic (Q9NR19 whole entry): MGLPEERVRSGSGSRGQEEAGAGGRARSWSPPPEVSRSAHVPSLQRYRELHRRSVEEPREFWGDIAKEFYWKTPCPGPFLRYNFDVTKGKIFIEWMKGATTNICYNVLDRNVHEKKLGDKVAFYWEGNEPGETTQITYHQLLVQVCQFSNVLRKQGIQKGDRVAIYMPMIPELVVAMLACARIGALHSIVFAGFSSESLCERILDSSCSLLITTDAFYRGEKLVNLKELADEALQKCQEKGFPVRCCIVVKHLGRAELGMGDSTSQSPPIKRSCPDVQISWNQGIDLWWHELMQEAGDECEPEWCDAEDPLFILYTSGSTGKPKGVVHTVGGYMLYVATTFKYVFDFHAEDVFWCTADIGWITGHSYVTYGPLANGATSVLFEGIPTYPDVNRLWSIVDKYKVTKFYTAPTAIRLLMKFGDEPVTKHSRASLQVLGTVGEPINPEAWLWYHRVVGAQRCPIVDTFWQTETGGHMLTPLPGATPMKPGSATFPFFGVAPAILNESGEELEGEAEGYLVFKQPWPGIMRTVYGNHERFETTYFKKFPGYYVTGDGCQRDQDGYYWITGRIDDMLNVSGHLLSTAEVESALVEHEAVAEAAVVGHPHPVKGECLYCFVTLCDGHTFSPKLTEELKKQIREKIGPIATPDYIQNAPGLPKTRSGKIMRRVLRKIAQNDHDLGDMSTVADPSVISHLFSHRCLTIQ

## CCC(F)(F)c1cccc(NC(=O)c2nc(-c3ccc4cc[nH]c4c3)oc2C)c1 [US12441689, Compound 106]
  IC50: > 100 nM
